Test results published in patent US20080318781A1, “Method of Controlling Weeds” (priority 2005, published 2008).

Key:
Format in all cases: in vivo
Velvetleaf (ABUTH) [1] = assay: Example 2 field test, pre-plant burn-down treatment followed by in-crop glyphosate: weed control; conditions: 86 days after first treatment; pre-plant burn-down (glyphosate 870 g/ha or I.7 50 g/ha), followed by glyphosate 870 g/ha at 53 DAT
Text: (§1) The phenyluracils I and/or the other active ingredients according to the present invention were formulated in a suitable way, either separately or in mixture, e.g. as emulsifiable concentrates (EC), soluble concentrates (SL), suspo-emulsions (SE), suspension concentrates (SC) or water-dispersible granules (WG). The formulation(s) were suspended or emulsified in water as a distribution medium immediately prior to spraying. Afterwards, the aqueous mixture was evenly sprayed on the test plots by means of finely distributing nozzles.
(§2) The test plots were of uniform size (typically between 14 and 37 square meters, each) and the distribution of treated and untreated plots was organized according to a randomised bloc design. Crops were sown in rows at a season which was typical for the region and the crop according to usual farm practice. Weeds were not sown but germinated according to the natural infestation.
(§3) For pre-plant and pre-plant burn-down treatments, the plots were treated before the crop was planted, typically 7 to 28 days prior to planting. For pre-emergence treatments, the plots were treated at planting (plus or minus two days) but before emergence. For post-emergence or in-crop treatments, the plots were treated after the emergence of the weed or crop, typically 20 to 50 days after planting.
(§4) The evaluation of the damage caused by the phenyluracils I and/or the other active ingredients according to the present invention was carried out using a scale from 0 to 100%, compared to the untreated control plots. Here, 0 means no damage and 100 means complete destruction of the plants of a respective weed or crop species.
(§5) Weed control in glyphosate resistant soybeans 86 days after the first treatment; pre-plant burn-down treatment followed by an in-crop glyphosate treatment at 53 DAT; field test.
(§6) In this example, glyphosate (potassium salt) was formulated as a 540 g/l SL and phenyluracil I.7 as a 120 g/l EC. […]

Giant ragweed (AMBTR) [2] = assay: as above; conditions: 86 days after first treatment; pre-plant burn-down (glyphosate 870 g/ha or I.7 50 g/ha), followed by glyphosate 870 g/ha at 53 DAT
Text: as §1, §2, §3, §4, §5, §6

[3] = test system: Common lambsquarters (CHEAL); assay: as above; conditions: 86 days after first treatment; pre-plant burn-down (glyphosate 870 g/ha or I.7 50 g/ha), followed by glyphosate 870 g/ha at 53 DAT
Text: as §1, §2, §3, §4, §5, §6

[4] = test system: glyphosate resistant soybeans; assay: Example 3 field test, pre-plant treatment followed by in-crop glyphosate: phytotoxicity in crop; conditions: 57 days after first treatment; pre-plant (glyphosate 870; I.7 25; I.7 + glyphosate 25 + 870; I.7 + imazethapyr 25 + 70 g/ha), followed by glyphosate 870 g/ha at 42 DAT; crop planted at 12 DAT
Text: as §1, §2
as §3, with “after planting. […]” for “after planting.”

[5] = test system: glyphosate resistant soybeans; assay: Example 2 field test, pre-plant burn-down treatment followed by in-crop glyphosate: phytotoxicity in crop; conditions: 86 days after first treatment; pre-plant burn-down (glyphosate 870 g/ha or I.7 50 g/ha), followed by glyphosate 870 g/ha at 53 DAT; crop planted at 8 DAT
Text: as §1, §2
as §3, with “after planting. […]” for “after planting.”

Velvetleaf (ABUTH) [6] = assay: Example 1 field test, pre-plant treatment: weed control; conditions: 44 days after treatment, use rate g/ha: glyphosate 870, I.7 25, I.7 + glyphosate 25 + 870, I.7 + imazethapyr 25 + 70
Text: as §1, §2
as §3, with “after planting. […]” for “after planting.”

Giant ragweed (AMBTR) [7] = assay: as above; conditions: 44 days after treatment, use rate g/ha: glyphosate 870, I.7 25, I.7 + glyphosate 25 + 870, I.7 + imazethapyr 25 + 70
Text: as §1, §2
as §3, with “after planting. […]” for “after planting.”

[8] = test system: glyphosate resistant soybeans; assay: Example 1 field test, pre-plant treatment: phytotoxicity in crop; conditions: 44 days after treatment, crop planted at 15 DAT, use rate g/ha: glyphosate 870, I.7 25, I.7 + glyphosate 25 + 870, I.7 + imazethapyr 25 + 70, 0 = no damage, 100 = complete destruction
Text: as §1, §2
as §3, with “after planting. […]” for “after planting.”

Giant ragweed (AMBTR) [9] = assay: Example 3 field test, pre-plant treatment followed by in-crop glyphosate: weed control; conditions: 57 days after first treatment; pre-plant (glyphosate 870; I.7 25; I.7 + glyphosate 25 + 870; I.7 + imazethapyr 25 + 70 g/ha), followed by glyphosate 870 g/ha at 42 DAT
Text: as §1, §2
as §3, with “after planting. […]” for “after planting.”

[10] = test system: Common lambsquarters (CHEAL); assay: as above; conditions: 57 days after first treatment; pre-plant (glyphosate 870; I.7 25; I.7 + glyphosate 25 + 870; I.7 + imazethapyr 25 + 70 g/ha), followed by glyphosate 870 g/ha at 42 DAT
Text: as §1, §2
as §3, with “after planting. […]” for “after planting.”

`O=C(O)CNCP(=O)(O)O` [Glyphosate, glyphosate] was tested, and the “Weed control (% control) Velvetleaf (ABUTH)” value (Velvetleaf (ABUTH) [1]) was 91%, the “Weed control (% control) Giant ragweed (AMBTR)” value (Giant ragweed (AMBTR) [2]) was 86% and the “Weed control (% control) Common lambsquarters (CHEAL)” value [3] was 89%. The “Phytotoxicity in glyphosate resistant soybeans (% damage)” value (“Phytotoxicity … (% damage)” for short) [4] was 0%, the “Phytotoxicity … (% damage)” value [5] was 0% and the “Weed control (% control) Velvetleaf (ABUTH)” value (Velvetleaf (ABUTH) [6]) was 17%. For the same compound, the “Weed control (% control) Giant ragweed (AMBTR)” value (Giant ragweed (AMBTR) [7]) was 86%, the “Phytotoxicity … (% damage)” value [8] was 0% and the “Weed control (% control) Giant ragweed (AMBTR)” value (Giant ragweed (AMBTR) [9]) was 72%. The “Weed control (% control) Common lambsquarters (CHEAL)” value [10] was 83%.
